The source of these data is ChEMBL document CHEMBL1137794, “Didemnins and tunichlorin: novel natural products from the marine tunicate Trididemnum solidum” (J Nat Prod, 1988).

Values after ≈ are worked out from the molar mass of the structure shown. Active and inactive are the calls of the source. The rule behind the calls is not given here. *1 amine or outer side, *2 acyl side, *3 side chain or, on linkers, in order; H or OH if unused. Where a SMILES comes first, the peptide text is derived from it. Bridges are numbered along the chain shown (N, C = ends). [ ]: non-standard residue; d: D form. X1 = CC[C@H](C)[C@@H](N[*:1])[C@@H](O)CC(=O)O[C@H](C(=O)[C@H](C)C(=O)[*:2])C(C)C; NMeY = CN[C@@H](Cc1ccc(O)cc1)C(=O)O; dNMeL = CN[C@H](CC(C)C)C(=O)O; Lac = C[C@H](O)C(=O)O

Data set [1] relates to Venezuelan equine encephalitis virus. Put plainly: Antiviral activity against Venezuelan equine encephalomyelitis virus infected in african green monkey Vero cells assessed as plaque reduction at 250 ug/mL. It is filed as functional, organism-based.
Data set [2] has as its system Sandfly fever Sicilian virus. Description: Antiviral activity against Sandfly fever virus assessed as plaque reduction at 250 ug/mL. It is filed as functional, organism-based.
The test system of data set [3] is Yellow fever virus. Description: Antiviral activity against Yellow fever virus infected in rhesus monkey MK2 cells assessed as plaque reduction at 250 ug/mL. The data set is classed as functional, organism-based.
For data set [4], the system named is Rift Valley fever virus. Put plainly: Antiviral activity against Rift Valley fever virus infected in african green monkey Vero cells assessed as plaque reduction at 250 ug/mL. It is filed as functional, organism-based.
The subject of data set [5] is Mus musculus. Put plainly: Toxicity in mouse P388 cells xenografted mouse assessed as change in body weight at 0.06 mg/kg, ip administered on day 1, 5 and day 9. Also noted: dose 0.06 mg/kg, route intraperitoneal. Particulars: in vivo. The data set is classed as organism-based.
The test system of data set [6] is Mus musculus. Description: Toxicity in mouse B16 cells xenografted mouse assessed as change in body weight at 0.03 mg/kg, ip administered on day 1 to day 9. On the set-up: dose 0.03 mg/kg, route intraperitoneal. It is filed as organism-based. As to conditions: in vivo.
For data set [7], the species on record is Mus musculus. Description: Toxicity in mouse. As to conditions: in vivo. The data set is classed as organism-based.
Data set [8] deals with Mus musculus. Put plainly: Toxicity in mouse P388 cells xenografted mouse at 0.06 mg/kg, ip administered on day 1 to day 9. It is filed as organism-based. As to conditions: in vivo. On the set-up: dose 0.06 mg/kg, route intraperitoneal.
In data set [9] the test system is Mus musculus. Description: Toxicity in mouse P388 cells xenografted mouse assessed as change in body weight at 1 mg/kg, ip administered on day 1, 5 and day 9. The data set is classed as organism-based. Also noted: dose 1 mg/kg, route intraperitoneal. Particulars: in vivo.
Data set [10] is filed under the species Mus musculus. Put plainly: Immunosuppressive activity in spleen cells transformed mouse assessed as inhibition of splenomegaly by graft-versus-host reaction assay. The data set is classed as functional, organism-based.
Data set [11] concerns Mus musculus. Put plainly: Toxicity in mouse P388 cells xenografted mouse assessed as change in body weight at 0.5 mg/kg, ip administered on day 1, 5 and day 9. It is filed as organism-based. On the set-up: dose 0.5 mg/kg, route intraperitoneal. As to conditions: in vivo.
For data set [12], the system named is Mus musculus. Description: Toxicity in mouse P388 cells xenografted mouse assessed as change in body weight at 1 mg/kg, ip administered on day 1 to day 9. Particulars: in vivo. The data set is classed as organism-based. Also noted: dose 1 mg/kg, route intraperitoneal.
Data set [13] relates to Yellow fever virus. Put plainly: Antiviral activity against Yellow fever virus infected in rhesus monkey MK2 cells assessed as plaque reduction at 0.05 ug/mL. The data set is classed as functional, organism-based.
In data set [14] the test system is Mus musculus. Description: Toxicity in mouse B16 cells xenografted mouse assessed as change in body weight at 0.06 mg/kg, ip administered on day 1, 5 and day 9. The data set is classed as organism-based. Also noted: dose 0.06 mg/kg, route intraperitoneal. As to conditions: in vivo.
For data set [15], the system named is Mus musculus. Description: Toxicity in mouse B16 cells xenografted mouse assessed as change in body weight at 0.5 mg/kg, ip administered on day 1, 5 and day 9. It is filed as organism-based. Also noted: dose 0.5 mg/kg, route intraperitoneal. As to conditions: in vivo.
Data set [16] relates to Rift Valley fever virus. Description: Antiviral activity against Rift Valley fever virus infected in african green monkey Vero cells assessed as plaque reduction at 0.05 ug/mL. It is filed as functional, organism-based.
For data set [17], the system named is Mus musculus. Description: Toxicity in mouse B16 cells xenografted mouse assessed as change in body weight at 0.5 mg/kg, ip administered on day 1 to day 9. It is filed as organism-based. Also noted: dose 0.5 mg/kg, route intraperitoneal. As to conditions: in vivo.
The test system of data set [18] is Venezuelan equine encephalitis virus. Description: Antiviral activity against Venezuelan equine encephalomyelitis virus infected in african green monkey Vero cells assessed as plaque reduction at 0.05 ug/mL. It is filed as functional, organism-based.
Data set [19] concerns Mus musculus. Put plainly: Toxicity in mouse P388 cells xenografted mouse assessed as change in body weight at 0.25 mg/kg, ip administered on day 1 to day 9. It is filed as organism-based. On the set-up: dose 0.25 mg/kg, route intraperitoneal. Particulars: in vivo.
Data set [20] concerns Mus musculus. Put plainly: Toxicity in mouse B16 cells xenografted mouse assessed as change in body weight at 0.25 mg/kg, ip administered on day 1 to day 9. The data set is classed as organism-based. Also noted: dose 0.25 mg/kg, route intraperitoneal. As to conditions: in vivo.
Data set [21] deals with Mus musculus. Description: Toxicity in mouse B16 cells xenografted mouse assessed as change in body weight at 1 mg/kg, ip administered on day 1, 5 and day 9. The data set is classed as organism-based. Also noted: dose 1 mg/kg, route intraperitoneal. As to conditions: in vivo.
Data set [22] concerns Mus musculus. Description: Toxicity in mouse P388 cells xenografted mouse assessed as change in body weight at 0.5 mg/kg, ip administered on day 1 to day 9. It is filed as organism-based. On the set-up: dose 0.5 mg/kg, route intraperitoneal. As to conditions: in vivo.
The species named for the next data set is Canis familiaris. Description: Toxicity in dog. The data set is classed as organism-based, Canis lupus familiaris. Particulars: in vivo.
Another data set is filed under the species Rattus norvegicus. Description: Toxicity in rat. It is filed as organism-based. As to conditions: in vivo.
The subject of data set [23] is Mus musculus. Description: Toxicity in mouse P388 cells xenografted mouse assessed as change in body weight at 0.25 mg/kg, ip administered on day 1, 5 and day 9. As to conditions: in vivo. On the set-up: dose 0.25 mg/kg, route intraperitoneal. The data set is classed as organism-based.
Data set [24] concerns Mus musculus. Put plainly: Toxicity in mouse P388 cells xenografted mouse assessed as change in body weight at 0.06 mg/kg, ip administered on day 1 to day 9. As to conditions: in vivo. On the set-up: dose 0.06 mg/kg, route intraperitoneal. It is filed as organism-based.
For data set [25], the system named is Sandfly fever Sicilian virus. Put plainly: Antiviral activity against Sandfly fever virus assessed as plaque reduction at 0.05 ug/mL. The data set is classed as functional, organism-based.
The test system of data set [26] is Mus musculus. Description: Toxicity in mouse B16 cells xenografted mouse at 0.5 mg/kg, ip administered on day 1 to day 9. It is filed as organism-based. On the set-up: dose 0.5 mg/kg, route intraperitoneal. Particulars: in vivo.
For data set [27], the system named is Mus musculus. Put plainly: Toxicity in mouse P388 cells xenografted mouse at 0.5 mg/kg, ip administered on day 1 to day 9. It is filed as organism-based. On the set-up: dose 0.5 mg/kg, route intraperitoneal. As to conditions: in vivo.
Data set [28] has as its system Mus musculus. Description: Toxicity in mouse B16 cells xenografted mouse assessed as change in body weight at 0.25 mg/kg, ip administered on day 1, 5 and day 9. It is filed as organism-based. On the set-up: dose 0.25 mg/kg, route intraperitoneal. Particulars: in vivo.
Data set [29] deals with Mus musculus. Description: Toxicity in mouse B16 cells xenografted mouse assessed as change in body weight at 0.06 mg/kg, ip administered on day 1 to day 9. The data set is classed as organism-based. On the set-up: dose 0.06 mg/kg, route intraperitoneal. Particulars: in vivo.
The subject of data set [30] is Mus musculus. Description: Toxicity in mouse P388 cells xenografted mouse assessed as change in body weight at 0.03 mg/kg, ip administered on day 1, 5 and day 9. Also noted: dose 0.03 mg/kg, route intraperitoneal. The data set is classed as organism-based.
A further data set relates to L1210. Description: Cytotoxicity against mouse L1210 cells. It is filed as functional. Particulars: read-out: ID50 (the source's name).
A further data set relates to P388. Description: Antitumor activity against mouse P388 cells xenografted mouse assessed as extend the life time at 0.03 to 1 mg/kg, ip. The data set is classed as functional. Particulars: dose mg/kg 0.03-1; route intraperitoneal.
The subject of data set [31] is Lymphocyte. Description: Immunosuppressive activity in human lymphocytes by mixed lymphocyte reaction assay. The data set is classed as functional, cell-based.
For data set [32], the system named is T-cell. Description: Immunosuppressive activity in rat T cell assessed as inhibition of mitogenesis.
The subject of data set [33] is T-cell. Put plainly: Immunosuppressive activity in baboon T cell assessed as inhibition of mitogenesis. As to conditions: Papio hamadryas.
The test system of another data set is B cell. Description: Immunosuppressive activity in human B cell assessed as inhibition of mitogenesis.
Data set [34] has as its system T-cell. Put plainly: Immunosuppressive activity in human T cell assessed as inhibition of mitogenesis. It is filed as functional, cell-based.
In data set [35] the test system is Lymphocyte. Put plainly: Immunosuppressive activity in baboon lymphocytes by mixed lymphocyte reaction assay. Particulars: Papio hamadryas.
The subject of data set [36] is Lymphocyte. Put plainly: Immunosuppressive activity in human lymphocytes assessed as inhibition of protein synthesis.

Turning to `NC(=O)c1ncn([C@@H]2O[C@H](CO)[C@@H](O)[C@H]2O)n1`, the outcome (in data set [1]; in [2]; in the data set with Yellow fever virus [3]; with Rift Valley fever virus [4]) was Active.

As for `CC[C@H](C)[C@H]1NC(=O)[C@@H](NC(=O)[C@@H](CC(C)C)N(C)C(=O)[C@@H]2CCCN2C(=O)C(C)O)[C@@H](C)OC(=O)[C@H](Cc2ccc(OC)cc2)N(C)C(=O)[C@@H]2CCCN2C(=O)[C@H](CC(C)C)NC(=O)[C@@H](C)C(=O)[C@H](C(C)C)OC(=O)C[C@@H]1O` (some centres not stated) [DIDEMNIN B], the Activity with Mus musculus [5] is listed as 1.2 g; in the data set on Mus musculus [6] it was 0.8 g; in the data set listed under Mus musculus [7], “Toxic”; in the data set on Mus musculus [8], “Toxic”; in the data set with Mus musculus [9], -3.8 g; with Mus musculus [11], -1.7 g. In addition, the Activity entry with Mus musculus [12] is “Toxic”; with Mus musculus [14], 1.2 g; in the data set on Mus musculus [15] it was -1.3 g; in the data set with Mus musculus [17], -4.5 g; in the data set with Mus musculus [19], -2.2 g; with Mus musculus [20], -3.3 g. For the same molecule, the Activity in the data set on Mus musculus [21] was -3.2 g; with Mus musculus [22], -3.4 g; in the data set filed under Canis familiaris, “Toxic”; in the data set filed under Rattus norvegicus it was “Toxic”; with Mus musculus [23] it was -0.5 g; with Mus musculus [24], 0.1 g. Further, the Activity result is “Toxic” in the data set with Mus musculus [26], “Toxic” in the data set with Mus musculus [27], 0.3 g in the data set on Mus musculus [28] and -0.4 g in the data set with Mus musculus [29]. In addition, the inhibition result in the data set listed under Mus musculus [10] is “Dose-dependent effect”. Moreover, the outcome (in the data set with Yellow fever virus [13]; with Rift Valley fever virus [16]; in data set [18]; in [25]) was Active. For the same molecule, the body weight change with Mus musculus [30] is 1600 mg.

With `CC[C@H](C)[C@H]1NC(=O)[C@@H](NC(=O)[C@@H](CC(C)C)N(C)C(=O)[C@H](C)O)[C@@H](C)OC(=O)[C@H](Cc2ccc(OC)cc2)N(C)C(=O)[C@@H]2CCCN2C(=O)[C@H](CC(C)C)NC(=O)[C@@H](C)C(=O)[C@H](C(C)C)OC(=O)C[C@@H]1O` [DIDEMNIN C] (H-[Lac][dNMeL]T[X1]LP[NMeY](Me); ester 3-C), the IC50 in the data set with L1210 amounted to 0.002 µg/mL (≈ 0.00197 µM).

For the molecule `CC[C@H](C)[C@H]1NC(=O)[C@@H](NC(=O)[C@@H](CC(C)C)NC)[C@@H](C)OC(=O)[C@H](Cc2ccc(OC)cc2)N(C)C(=O)[C@@H]2CCCN2C(=O)[C@H](CC(C)C)NC(=O)[C@@H](C)C(=O)[C@H](C(C)C)OC(=O)C[C@@H]1O` [DIDEMNIN A] (H-[dNMeL]T[X1]LP[NMeY](Me); ester 2-C), the IC50 in the data set on L1210 came out at 0.002 µg/mL (≈ 0.00212 µM). Further, the Activity in the data set with P388 was 100%.

On to `Cn1cnc([N+](=O)[O-])c1Sc1ncnc2[nH]cnc12` [AZATHIOPRINE], for which the IC50 in the data set on Lymphocyte [31] is 3 µg/mL (≈ 10.8 µM); in the data set with T-cell [32], 2 µg/mL (≈ 7.21 µM); in the data set with T-cell [33], 0.4 µg/mL (≈ 1.44 µM); in the data set with B cell it was 1 µg/mL (≈ 3.61 µM); with T-cell [34], 9 µg/mL (≈ 32.5 µM); in the data set on Lymphocyte [35], 2.9 µg/mL (≈ 10.5 µM). The IC50 with Lymphocyte [36] worked out at 85 µg/mL (≈ 307 µM).
